Assay results: US20240268388A1, “AGRICULTURAL AND HORTICULTURAL FUNGICIDAL COMPOSITION” (NIPPON SODA CO., LTD., priority 2021, published 2024)
Like-named read-outs stand apart in the source and are kept apart here.

Legend:
[1] = system: wheat leaf blight pathogen (Septoria tritici); test: Fungicidal test for wheat leaf blight (microplate, turbidity at 405 nm); format: cell-based; conditions: for inhibition at 6.3 ppm / inhibition at 12.5 ppm / inhibition at 25 ppm / inhibition at 50 ppm / inhibition at 100 ppm: Zymoseptoria tritici, component (I) alone, read-out: growth inhibition rate; for growth inhibition rate: component (II) alone
Description: Compounds of component (I) and component (II) were dissolved in dimethyl sulfoxide at 10,000 ppm and diluted with water to the prescribed concentration to prepare a chemical agent solution. A mixture of the prescribed concentration of the chemical agent solution, wheat leaf blight pathogen (Septoria tritici) conidia, and malt extract was prepared on a microplate and incubated at 20° C. in the dark for 3 days. The turbidity at a wavelength of 405 nm was measured with a microplate reader, and the growth of wheat leaf blight pathogen was compared with that of no treatment control to determine the growth inhibition rate. The results are shown in Tables 2 to 7, along with the expected values calculated as below.
Each expected value was calculated from the fungicidal efficacy of a single application of the compound of component (I) and the fungicidal efficacy of a single application of compound of component (II) by using Colby's equation (S. R. Colby, Calculating synergistic and antagonistic responses of herbicide combinations, Weeds, 15, 20-22 pp (1967)).
[formula] • where E represents the expected value of the growth inhibition rate (%) for the composition containing component (I) and component (II), M represents the growth inhibition rate (%) when the component (I) is used alone, and N represents the growth inhibition rate (%) when the component (II) is used alone. When the measured growth inhibition rate (%) for the composition containing component (I) and component (II) is greater than the expected value E, the composition containing components (I) and component (II) should exert a synergistic effect.

[2] = system: soybean rust pathogen (Phakopsora pachyrhizi); test: Soybean rust control test (leaf discs); format: in vivo
Description: Compounds of component (I) and component (II) were dissolved in dimethyl sulfoxide and diluted with water to the prescribed concentration to prepare a chemical agent solution. A mixture of the prescribed concentration of the chemical agent solution and sterile water was prepared on a microplate, and leaf discs cut from soybean leaves were floated on the microplate. Uredospores of soybean rust pathogen (Phakopsora pachyrhizi) were inoculated and incubated at 25° C. for 9 days. The area percentage of lesions was determined by observing uredospore-forming lesions on the leaf discs, and the control value was calculated. The control value was calculated by the following formula:
Control value (%)=100−{Area percentage of lesions in treatment plot/Area percentage of lesions in untreatment plot}×100.
The results are shown in Tables 8 to 18, along with the expected values calculated as below. Each expected values was calculated from the fungicidal efficacy of a single application of compound of component (I) and the fungicidal efficacy of a single application of compound of component (II) by using Colby's equation:
[formula] • where E represents the expected value of the control value for the composition containing component (I) and component (II), M represents the control value (%) when the component (I) is used alone, and N represents the control value (%) when the component (II) is used alone. When the measured control value for the composition containing component (I) and component (II) is greater than the expected value E, the composition containing component (I) and composition (II) should exert a synergistic effect.

[3] = system: cucumber anthracnose pathogen (Colletotrichum lagenarium); test: Fungicidal test for cucumber anthracnose (microplate, turbidity at 405 nm); format: cell-based; conditions: for inhibition at 0.025 ppm / inhibition at 0.1 ppm / inhibition at 0.4 ppm: Colletotrichum orbiculare, read-out: growth inhibition rate
Description: The compounds were dissolved in dimethyl sulfoxide to prepare a chemical agent solution.
A mixture of the prescribed concentration of the chemical agent solution, cucumber anthracnose pathogen (Colletotrichum lagenarium) conidia, and Vogel medium was prepared on a microplate and incubated at 20° C. in the dark for 7 days.
Each expected value was calculated using Colby's equation:
[formula] • where E represents the expected value of the growth inhibition rate (%), M represents the growth inhibition rate (%) when the component (I) is used alone, and N represents the growth inhibition rate (%) when the component (II) is used alone.

[4] = component (I) alone, 0.0063 ppm
[5] = Table 14, component (II) alone (component (I): None): Inpyrfluxam 0.00025, Chlorothalonil 0.006, Thiophanate-methyl 0.0001, Tebuconazole 0.000025, Trifloxystrobin 0.0001, Fluazinam 0.006, Prothioconazole 0.000025, Florylpicoxamid 0.0001, Metominostrobin 0.0004 ppm
[6] = Table 15, component (II) alone (component (I): None): Azoxystrobin 0.0001, Inpyrfluxam 0.000025, Chlorothalonil 0.0063, Difenoconazole 0.000025, Cyproconazole 0.000025, Tebuconazole 0.000025, Trifloxystrobin 0.0001, Pyraclostrobin 0.0001, Fluazinam 0.0063, Fluxapyroxad 0.000025, Prothioconazole 0.000025, Florylpicoxamid 0.0001, Benzovindiflupyr 0.000025, Mancozeb 0.0063 ppm
[7] = Table 16, component (II) alone (component (I): None): Inpyrfluxam 0.000025, Chlorothalonil 0.006, Thiophanate-methyl 0.0001, Tebuconazole 0.000025, Trifloxystrobin 0.0001, Fluazinam 0.006, Prothioconazole 0.000025, Florylpicoxamid 0.0001, Metominostrobin 0.0004 ppm
[8] = Table 17, component (II) alone (component (I): None): Inpyrfluxam 0.000026, Chlorothalonil 0.02, Thiophanate-methyl 0.0004, Tebuconazole 0.0001, Trifloxystrobin 0.0001, Fluazinam 0.006, Prothioconazole 0.000025, Florylpicoxamid 0.0001, Metominostrobin 0.0004 ppm
[9] = Table 18, component (II) alone (component (I): None): Azoxystrobin 0.0001, Inpyrfluxam 0.000025, Chlorothalonil 0.0063, Difenoconazole 0.000025, Cyproconazole 0.000025, Tebuconazole 0.000025, Trifloxystrobin 0.0001, Pyraclostrobin 0.0001, Fluazinam 0.0063, Fluxapyroxad 0.000025, Prothioconazole 0.000025, Florylpicoxamid 0.0001, Benzovindiflupyr 0.000025, Mancozeb 0.0063 ppm
[10] = Table 19, component (II) alone (component (I): None): Ipflufenoquin 0.000026, Iminoctadine trialbesilate 0.0032, Cyflufenamid 10, Cyprodinil 0.00013, Potassium bicarbonate 0.08, Thiophanate-methyl 0.08, Picarbutrazox 0.016, Fludioxonil 0.0032, Florylpicoxamid 0.0032, Metyltetraprole 0.08, Mefentrifluconazole 0.4 ppm
[11] = Table 20, component (II) alone (component (I): None): Ipflufenoquin 0.00064, Iminoctadine trialbesilate 0.0032, Cyflufenamid 10, Cyprodinil 0.00013, Potassium bicarbonate 0.08, Thiophanate-methyl 0.4, Picarbutrazox 0.016, Fludioxonil 0.0032, Florylpicoxamid 0.0032, Metyltetraprole 0.08, Mefentrifluconazole 0.4 ppm
[12] = Table 21, component (II) alone (component (I): None): Ipflufenoquin 0.00064, Iminoctadine trialbesilate 0.0032, Cyflufenamid 10, Cyprodinil 0.00013, Potassium bicarbonate 0.08, Thiophanate-methyl 0.4, Picarbutrazox 0.00064, Fludioxonil 0.0032, Florylpicoxamid 0.0032, Metyltetraprole 0.08, Mefentrifluconazole 0.4 ppm
[13] = Table 22, component (II) alone (component (I): None): Ipflufenoquin 0.00064, Iminoctadine trialbesilate 0.0032, Cyflufenamid 10, Cyprodinil 0.00013, Potassium bicarbonate 0.08, Thiophanate-methyl 0.4, Picarbutrazox 0.00064, Fludioxonil 0.0032, Florylpicoxamid 0.0032, Metyltetraprole 0.08, Mefentrifluconazole 0.4 ppm
[14] = Table 23, component (II) alone (component (I): None): Ipflufenoquin 0.00064, Iminoctadine trialbesilate 0.0032, Cyflufenamid 10, Cyprodinil 0.000026, Potassium bicarbonate 0.08, Thiophanate-methyl 0.4, Picarbutrazox 0.00064, Fludioxonil 0.00064, Florylpicoxamid 0.0032, Metyltetraprole 0.08, Mefentrifluconazole 0.4 ppm
[15] = Table 24, component (II) alone (component (I): None): Ipflufenoquin 0.00064, Iminoctadine trialbesilate 0.0032, Cyflufenamid 10, Cyprodinil 0.00013, Potassium bicarbonate 0.08, Thiophanate-methyl 0.4, Picarbutrazox 0.00064, Fludioxonil 0.00013, Florylpicoxamid 0.0032, Metyltetraprole 0.08, Mefentrifluconazole 0.4 ppm

## N#CCON=C1CN(C(=O)Cc2ccc(-c3noc(C(F)(F)F)n3)cc2)C1 [Compound 3]
[1]
  inhibition at 6.3 ppm: 32%
  inhibition at 12.5 ppm: 41%
  inhibition at 25 ppm: 42%
  inhibition at 50 ppm: 44%
  inhibition at 100 ppm: 49%
[2]; [4]
  control value: 12%
[2]; component (I) alone, 0.025 ppm
  control value: 22%
[2]; component (I) alone, 0.1 ppm
  control value: 35%
[2]; component (I) alone, 0.4 ppm
  control value: 85%
[3]; Compound 3 alone
  inhibition at 0.025 ppm: 26%
  inhibition at 0.1 ppm: 9%
  inhibition at 0.4 ppm: 84%

## CCON=C1CN(C(=O)C(OC)c2ccc(-c3noc(C(F)(F)F)n3)cc2)C1 (stereo not shown) [Compound 5]
[1]
  inhibition at 6.3 ppm: 61%
  inhibition at 12.5 ppm: 68%
  inhibition at 25 ppm: 68%
  inhibition at 50 ppm: 64%
  inhibition at 100 ppm: 72%
[2]; [4]
  control value: 7%
[2]; component (I) alone, 0.025 ppm
  control value: 18%
[2]; component (I) alone, 0.1 ppm
  control value: 46%
[2]; component (I) alone, 0.4 ppm
  control value: 90%
[3]; Compound 5 alone
  inhibition at 0.025 ppm: 4%
  inhibition at 0.1 ppm: 76%
  inhibition at 0.4 ppm: 90%

## CCON=C1CN(C(=O)C(C)c2ccc(-c3noc(C(F)(F)F)n3)cc2)C1 (stereo not shown) [Compound 6]
[1]
  inhibition at 6.3 ppm: 47%
  inhibition at 12.5 ppm: 58%
  inhibition at 25 ppm: 63%
  inhibition at 50 ppm: 64%
  inhibition at 100 ppm: 69%
[2]; [4]
  control value: 19%
[2]; component (I) alone, 0.025 ppm
  control value: 49%
[2]; component (I) alone, 0.1 ppm
  control value: 76%
[2]; component (I) alone, 0.4 ppm
  control value: 98%
[3]; Compound 6 alone
  inhibition at 0.025 ppm: 32%
  inhibition at 0.1 ppm: 67%
  inhibition at 0.4 ppm: 86%

## COc1ccnc(C(=O)N[C@@H](C)C(=O)O[C@@H](C)C(c2ccc(F)cc2)c2ccc(F)cc2)c1OC(C)=O [Florylpicoxamid, florylpicoxamid, reference compound]
[1]; 0.001 ppm
  growth inhibition rate: 80%
[1]; .0002 ppm (also printed 0002)
  growth inhibition rate: 70%
[2]; [5]
  control value: 27%
[2]; [6]
  control value: 0%
[2]; [7]
  control value: 27%
[2]; [8]
  control value: 27%
[2]; [9]
  control value: 0%
[3]; [10]
  growth inhibition rate: 0%
[3]; [11]
  growth inhibition rate: 0%
[3]; [12]
  growth inhibition rate: 0%
[3]; [13]
  growth inhibition rate: 0%
[3]; [14]
  growth inhibition rate: 0%
[3]; [15]
  growth inhibition rate: 0%

## Cc1nc2c(F)c(F)ccc2cc1Oc1cccc(F)c1C(C)(C)O [Ipflufenoquin, ipflufenoquin, reference compound]
[1]; 0.06 ppm
  growth inhibition rate: 6%
[1]; 0.25 ppm
  growth inhibition rate: 6%
[1]; 1 ppm
  growth inhibition rate: 22%
[3]; [10]
  growth inhibition rate: 0%
[3]; [11]
  growth inhibition rate: 47%
[3]; [12]
  growth inhibition rate: 47%
[3]; [13]
  growth inhibition rate: 47%
[3]; [14]
  growth inhibition rate: 47%
[3]; [15]
  growth inhibition rate: 47%

## inpyrfluxam [reference compound]
[1]; 0.01 ppm
  growth inhibition rate: 24%
[1]; 0.04 ppm
  growth inhibition rate: 49%
[2]; [5]
  control value: 16%
[2]; [6]
  control value: 50%
[2]; [7]
  control value: 16%
[2]; [8]
  control value: 16%
[2]; [9]
  control value: 50%

## mancozeb
[1]; 0.004 ppm
  growth inhibition rate: 9%
[1]; 0.02 ppm
  growth inhibition rate: 19%
[1]; 0.06 ppm
  growth inhibition rate: 19%
[2]; [6]
  control value: 0%
[2]; [9]
  control value: 0%
